Assay results published in US11746374B2, “Methods and platform for screening and selecting metabolites and their receptors” (BOARD OF REGENTS, THE UNIVERSITY OF TEXAS SYSTEM, priority 2017, dated 2023).
Several values for one entry are separate records, joined by “and”; a condition that tells them apart may be missing. Identical values can stand only once. Entries after “also recorded” stand apart in the source; their conditions may differ.

Tests used:
BY4741 = assay: Metabolite toxicity determined by growth assays; type: cell-based, Saccharomyces cerevisiae; details: 4 mM of each metabolite, compared to synthetic media only
Experimental: Measurements of cell density (OD600) were taken in 10 min intervals. Each condition was tested in triplicate. For hexanoate growth conditions of aromatic prenyltransferase variants, transformed cells were seeded for 48 hrs and diluted 1:25 in 96-well grow-blocks in media containing 1-5 mM hexanoate. Measurements of cell density were taken in 24 hr intervals using an F500 plate reader. Final screening was performed with 10 mM hexanoate, 1% acetate supplemented synthetic complete media in 50 mL culture volumes.

[1] = target: T1, 3,5,7-trioxododecanoyl-CoA synthase (OLS) (Cannabis sativa, UniProt B1Q2B6); details: cited from earlier work
T1 sequence (B1Q2B6 1-385): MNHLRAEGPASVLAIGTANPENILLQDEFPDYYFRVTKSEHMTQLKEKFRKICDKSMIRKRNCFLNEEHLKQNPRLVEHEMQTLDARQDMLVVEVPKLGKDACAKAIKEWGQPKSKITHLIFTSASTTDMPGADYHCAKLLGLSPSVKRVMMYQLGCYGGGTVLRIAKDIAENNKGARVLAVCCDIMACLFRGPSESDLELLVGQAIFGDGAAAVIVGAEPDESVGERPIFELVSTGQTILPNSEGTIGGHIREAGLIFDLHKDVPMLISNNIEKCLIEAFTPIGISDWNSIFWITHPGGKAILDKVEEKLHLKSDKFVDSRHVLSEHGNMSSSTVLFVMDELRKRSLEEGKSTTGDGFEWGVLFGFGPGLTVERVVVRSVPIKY

P2X2 = target: T2, P2X2 (Homo sapiens, UniProt Q9UBL9); assay: Plate-based aequorin luminescence assay of P2X2 expressed in yeast; type: cell-based; design: expressed in transfected cells; host or cells: Saccharomyces cerevisiae BY4741 dCne1p, genome-integrated under the GAL1 promoter, aequorin on a high-copy plasmid; details: for agonism / gating of P2X2: aequorin luminescence; for EC50: dose-response, area under luminescence curve
T2 sequence (Q9UBL9 1-471): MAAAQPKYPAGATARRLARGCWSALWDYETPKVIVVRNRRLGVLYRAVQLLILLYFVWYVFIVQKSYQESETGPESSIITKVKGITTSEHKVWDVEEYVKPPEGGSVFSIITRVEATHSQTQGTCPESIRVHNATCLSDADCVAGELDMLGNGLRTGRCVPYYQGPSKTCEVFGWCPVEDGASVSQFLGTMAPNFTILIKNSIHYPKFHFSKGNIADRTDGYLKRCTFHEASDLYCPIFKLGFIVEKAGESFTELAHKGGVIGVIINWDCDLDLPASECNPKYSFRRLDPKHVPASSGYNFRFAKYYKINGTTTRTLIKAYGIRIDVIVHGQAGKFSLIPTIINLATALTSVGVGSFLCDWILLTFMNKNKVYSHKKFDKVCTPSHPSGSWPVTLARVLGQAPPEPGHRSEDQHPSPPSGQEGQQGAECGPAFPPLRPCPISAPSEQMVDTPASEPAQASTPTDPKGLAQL
Experimental: Ion channel activity in yeast was tested with the purinergic P2X ion channel family. Channel gating was assessed by an aequorin assay in which aequorin is co-expressed with the receptor and, upon addition of the prosthetic group coelenterazine and addition of calcium, blue light is released. The aequorin-based functional assay was performed in all seven P2X receptors (FIG. 8). P2X1-7 were integrated into the chromosome to mitigate copy number variation between clones and were induced with galactose with the pGal1 promoter. […] Among those receptors that didn't work, it was suspected that improvements in expression and trafficking can improve functionality. For example, by modulating trafficking domains within the P2X4 receptor, aggregation was reduced in vesicles (FIG. 9), and it is believed that this tactic can be employed in other receptors. […] This can be because P2X2 has the slowest desensitization rates of the family (and is often considered “non-desensitizing”) and has the highest unitary conductance (30 pS).
To determine whether or not this truncated channel gated in yeast, an aequorin-based functional assay was used. Here aequorin, a bioluminescent protein, emits a photon upon binding calcium. This is done with the aid of coelenterazine, which must be added exogenously to yeast. The reaction is not catalytic, and the off-rate of calcium is too slow to observe on the timescales utilized in our assays. To optimize conditions for expression of both the receptor and reporter, a combination of integration, low-copy, and high-copy vectors was used. At this point, it was only possible to produce a signal upon addition of ATP, the native ligand, when both the receptor and reporter were expressed on high-copy plasmids (FIG. 56).
BY4741ΔCne1p cells were transformed with vectors containing P2X variants. Transformants were validated and made competent for a subsequent transformation with a vector containing aequorin under the expression of the constitutive PGK2 promoter. Overnight cells were induced with 2% […] for 20 hours. Following receptor expression, cells were collected by centrifugation and concentrated to 500 μL. The concentrated cells were then incubated with 5 μL of 1 mg/mL coelenterazine for 30 minutes at room temperature. Washed cells were then resuspended in softening buffer (1 M Sorbitol, 25 mM EDTA, 50 mM DTT), followed by washes in 1 M sorbitol and water. Cells were then resuspended in 50 mM MES/Tris pH 6.5 and aliquoted into a 96-well plate. Using an F500, 25 μL of cells were monitored for luminescence for 5 seconds. Upon addition of ligand or buffer (100 μL), cells were monitored for luminescence for varying times. Cell lysis was performed with the addition of 100 μL Tween20. For inhibition, varying concentrations of suramin were incubated with cells. Luminescence was monitored before and after the addition of 100 μL of 10 μM ATP. Areas under the curve were calculated and plotted against a negative control to determine the IC50.

[2] = target: T3, cannabidiolic acid synthase (CBDA synthase) (Cannabis sativa, UniProt A6P6V9); details: cited from earlier work
T3 sequence (A6P6V9 29-544): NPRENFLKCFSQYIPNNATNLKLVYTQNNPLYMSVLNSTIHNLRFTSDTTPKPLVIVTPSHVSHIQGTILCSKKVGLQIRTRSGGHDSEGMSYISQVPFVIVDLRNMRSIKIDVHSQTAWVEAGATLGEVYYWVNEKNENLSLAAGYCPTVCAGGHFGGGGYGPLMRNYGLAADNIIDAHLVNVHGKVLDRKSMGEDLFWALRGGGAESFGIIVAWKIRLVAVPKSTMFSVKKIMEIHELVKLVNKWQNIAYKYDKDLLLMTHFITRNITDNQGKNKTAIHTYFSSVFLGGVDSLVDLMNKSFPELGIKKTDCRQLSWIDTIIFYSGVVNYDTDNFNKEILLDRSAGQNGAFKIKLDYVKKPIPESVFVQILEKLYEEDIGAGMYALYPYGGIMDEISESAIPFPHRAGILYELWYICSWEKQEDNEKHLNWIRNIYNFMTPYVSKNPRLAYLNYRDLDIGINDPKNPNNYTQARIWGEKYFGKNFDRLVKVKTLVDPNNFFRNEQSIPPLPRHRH

[3] = target: T4, Tetrahydrocannabinolic acid synthase (THCA synthase) WT (Cannabis sativa, UniProt Q8GTB6); details: cited from earlier work
T4 sequence (Q8GTB6 29-545): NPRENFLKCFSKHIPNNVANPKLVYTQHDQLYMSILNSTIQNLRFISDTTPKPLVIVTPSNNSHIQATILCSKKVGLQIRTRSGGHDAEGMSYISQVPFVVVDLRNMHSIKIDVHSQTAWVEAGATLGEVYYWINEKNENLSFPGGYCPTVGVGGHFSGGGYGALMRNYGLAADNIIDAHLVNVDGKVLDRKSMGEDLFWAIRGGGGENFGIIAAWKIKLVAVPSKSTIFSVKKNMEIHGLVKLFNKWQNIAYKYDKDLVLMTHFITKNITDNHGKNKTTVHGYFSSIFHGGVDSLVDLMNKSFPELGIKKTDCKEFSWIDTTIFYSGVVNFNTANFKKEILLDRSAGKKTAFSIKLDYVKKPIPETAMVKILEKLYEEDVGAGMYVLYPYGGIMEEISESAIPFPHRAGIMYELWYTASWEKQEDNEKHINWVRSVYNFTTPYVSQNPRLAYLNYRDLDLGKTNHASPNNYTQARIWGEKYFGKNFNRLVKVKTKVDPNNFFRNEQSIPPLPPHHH

wild-type CB2 receptor = wild-type CB2 receptor (Homo sapiens, UniProt P34972); details: Gertsch 2008; cited from earlier work
human CB2 receptor = target: T5, human CB2 receptor (Homo sapiens, UniProt P34972); type: cell-based; details: exogenously added ligand; GFP or zsGreen1 reporter
T5 construct: expressed in transfected cells; host or cells: Saccharomyces cerevisiae strains JG03-, JG04-, JG05-2.0 (zsGreen1 reporter), high-copy plasmid
Experimental: The ability of three of strains to couple to the human CB2 receptor expressed on a high-copy number plasmid was tested. Ga subunits that were predicted to couple to the receptor (Shim et al., 2013) were used. The dose-response of 2-arachidonyl glycerol, the native endocannabinoid, in strains differing only in the terminal 5 amino acids of the Gα protein. Control receptors were built that contained stop codons in the middle of the gene. These are referred to as ‘broken’ receptors.
Cells were washed 3 times and resuspended in PBS. Fluorescent (485 nm/515 nm) and cell density (600 nm) measurements were taken on a Cytation 5. Data were plotted and analyzed using SigmaPlot10. For CB2, strains JG03-, JG04-, and JG05-2.0 were transformed and treated the same. Broken receptor (stop codons) were also included in these assays.

[4] = target: T6, CsAAE1 Hexanoyl CoA Synthase (Cannabis sativa, UniProt H9A1V3); details: cited from earlier work
T6 sequence (H9A1V3 1-720): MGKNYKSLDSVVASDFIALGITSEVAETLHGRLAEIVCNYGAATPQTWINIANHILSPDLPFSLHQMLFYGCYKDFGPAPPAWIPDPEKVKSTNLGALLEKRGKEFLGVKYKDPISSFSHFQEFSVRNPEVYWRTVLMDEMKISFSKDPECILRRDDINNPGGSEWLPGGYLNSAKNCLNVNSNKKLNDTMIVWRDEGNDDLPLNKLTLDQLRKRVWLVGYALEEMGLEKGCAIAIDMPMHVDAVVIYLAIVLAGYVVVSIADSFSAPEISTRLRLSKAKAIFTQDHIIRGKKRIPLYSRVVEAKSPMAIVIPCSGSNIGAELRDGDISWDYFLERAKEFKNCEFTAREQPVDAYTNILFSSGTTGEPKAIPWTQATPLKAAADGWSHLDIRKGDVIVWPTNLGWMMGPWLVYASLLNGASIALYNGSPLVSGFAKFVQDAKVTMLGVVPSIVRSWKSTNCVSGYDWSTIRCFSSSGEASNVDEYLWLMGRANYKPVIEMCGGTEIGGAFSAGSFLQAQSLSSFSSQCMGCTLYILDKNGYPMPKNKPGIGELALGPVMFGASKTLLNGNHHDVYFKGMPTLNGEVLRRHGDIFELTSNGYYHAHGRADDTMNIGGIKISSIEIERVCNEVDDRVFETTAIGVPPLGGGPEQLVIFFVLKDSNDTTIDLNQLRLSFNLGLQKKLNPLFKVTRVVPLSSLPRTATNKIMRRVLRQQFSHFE

T5 sequence (P34972 whole entry): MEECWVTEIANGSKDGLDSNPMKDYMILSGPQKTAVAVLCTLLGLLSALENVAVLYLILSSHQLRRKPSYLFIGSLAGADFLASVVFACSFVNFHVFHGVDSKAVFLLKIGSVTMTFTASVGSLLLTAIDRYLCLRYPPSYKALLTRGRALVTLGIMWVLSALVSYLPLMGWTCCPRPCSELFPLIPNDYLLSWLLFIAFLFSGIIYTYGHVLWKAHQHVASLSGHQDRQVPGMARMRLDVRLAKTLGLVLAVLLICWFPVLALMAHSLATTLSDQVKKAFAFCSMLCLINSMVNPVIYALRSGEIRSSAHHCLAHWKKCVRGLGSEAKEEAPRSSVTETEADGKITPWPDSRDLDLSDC
wild-type CB2 receptor, sequence (P34972 whole entry): as above

CCCCCc1cc(O)cc(O)c1 [olivetol]
effect on yeast growth (BY4741): severely inhibit growth

CCCCCC(=O)CC(=O)CC(=O)CC(=O)SCCNC(=O)CCNC(=O)[C@H](O)C(C)(C)COP(=O)(O)OP(=O)(O)OC[C@H]1O[C@@H](n2cnc3c(N)ncnc32)[C@H](O)[C@@H]1OP(=O)(O)O [3,5,7-trioxododecanoyl-CoA]
Km [1]: 56.9 µM | kcat [1]: 0.0577 s⁻¹

2′(3′)-O-(4-Benzoylbenzoyl)adenosine-5′-triphosphate [BzATP]
amplitude of generated signal lower than either ATP or 2-Cl-ATP (P2X2): 3 orders of magnitude | duration that the channel remains open, longer (P2X2): ~10 fold | peak amplitude relative to that achieved with ATP (P2X2): approximately 20% | agonism / gating of P2X2 (P2X2): partial agonism | EC50 (P2X2): 29.1 ± 6 µM

CCCCCc1cc(O)c(C/C=C(\C)CCC=C(C)C)c(O)c1C(=O)O [CBGA, Cannabigerolic acid]
effect on yeast growth (BY4741): modest growth defect; also recorded: far less inhibitory | Km [2]: 137 µM | kcat [2]: 0.19 s⁻¹ | Km [3]: 134 µM | kcat [3]: .201 s⁻¹

C=C1CC/C=C(\C)CC[C@@H]2[C@@H]1CC2(C)C [β-caryophyllene]
detectable level of activation with the wild-type CB2 receptor (wild-type CB2 receptor): 1.9 µM | reporter response of CB2-expressing yeast to ligand (human CB2 receptor): dose-dependent up-regulation of GFP expression; also recorded: responded to high concentration

C=C(C)[C@@H]1CCC(C)=C[C@H]1c1c(O)cc(CCCCC)cc1O [CBD, cannabidiol]
effect on yeast growth (BY4741): modest growth defect; also recorded: far less inhibitory

CCCCCc1cc(O)cc(O)c1C(=O)O [olivetolic acid]
effect on yeast growth (BY4741): strongly inhibit growth

Nc1nc(Cl)nc2c1ncn2[C@@H]1O[C@H](COP(=O)(O)OP(=O)(O)OP(=O)(O)O)[C@@H](O)[C@H]1O [2-Chloro ATP, 2-Chloro-Adenosinetriphosphate]
agonism / gating of P2X2 (P2X2): full agonist behavior | EC50 (P2X2): 26.7 ± 1.5 µM

CCCCCC(=O)SCCNC(=O)CCNC(=O)[C@H](O)C(C)(C)COP(=O)(O)OP(=O)(O)OC[C@H]1O[C@@H](n2cnc3c(N)ncnc32)[C@H](O)[C@@H]1OP(=O)(O)O [Hexanoyl-CoA]
Km [1]: 63.1 µM and 60.8 µM

CCCCCC(=O)O [Hexanoate, Hexanoic acid]
effect on yeast growth (BY4741): severely inhibit growth | effect on yeast growth (BY4741; listed as Hexanoic acid): strongly inhibit growth | Km [4]: 3700 µM | kcat [4]: 2.0 s⁻¹

Nc1ncnc2c1ncn2[C@@H]1O[C@H](COP(=O)(O)OP(=O)(O)NP(=O)(O)O)[C@@H](O)[C@H]1O [AMP-PNP, adenylyl-imidodiphosphate]
agonism / gating of P2X2 (P2X2): did not gate P2X2
